Test results: patent US8952157B2, “Apoptosis-inducing agents for the treatment of cancer and immune and autoimmune diseases” (AbbVie Inc., priority 2008, dated 2015)

Biological target: GST-Bcl-2 (Homo sapiens (Human), UniProt P10415)
Assay: Time Resolved-Fluorescence Resonance Energy Transfer (TR-FRET) Bcl-2 binding assay
Details: GST-Bcl-2 1 nM, F-Bak peptide probe 100 nM, Tb-anti-GST antibody 1 nM; Ki by Wang's equation
How it was run: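 Ki values derived from TR-FRET displacement of F-Bak peptide from GST-Bcl-2, detected with Tb-labelled anti-GST antibody (ex 340, em 520/495 nm). Compound dilution series started at 50 μM (2× starting concentration); room-temperature incubation 3 hours.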

Sequence of GST-Bcl-2 (P10415 whole entry): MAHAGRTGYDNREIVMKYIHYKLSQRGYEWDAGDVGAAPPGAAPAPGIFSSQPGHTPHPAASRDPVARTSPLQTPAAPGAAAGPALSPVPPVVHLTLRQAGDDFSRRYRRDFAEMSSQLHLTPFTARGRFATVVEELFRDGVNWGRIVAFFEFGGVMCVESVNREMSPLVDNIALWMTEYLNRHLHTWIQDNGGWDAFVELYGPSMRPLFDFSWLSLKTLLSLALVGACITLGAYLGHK

Point of comparison: `CC1(C)CCC(CN2CCN(c3ccc(C(=O)NS(=O)(=O)c4cnc(OCC5(F)CCOCC5)c(F)c4)c(Oc4cnc(N)c(Cl)c4)c3)CC2)=C(c2ccc(Cl)cc2)C1` [Example 402, 2-[(6-amino-5-chloropyridin-3-yl)oxy]-4-(4-{[2-(4-chlorophenyl)-4,4-dimethylcyclohex-1-en-1-yl]methyl}piperazin-1-yl)-N-({5-fluoro-6-[(4-fluorotetrahydro-2H-pyran-4-yl)methoxy]pyridin-3-yl}sulfonyl)benzamide], Ki 0.039 nM. Against it:
- CC1(C)CCC(CN2CCN(c3ccc(C(=O)NS(=O)(=O)c4ccc(N[C@@H]5CCCN(C(CF)CF)C5)c([N+](=O)[O-])c4)c(Oc4cnc(N)c(Cl)c4)c3)CC2)=C(c2ccc(Cl)cc2)C1 [Example 382, 2-[(6-amino-5-chloropyridin-3-yl)oxy]-4-(4-{[2-(4-chlorophenyl)-4,4-dimethylcyclohex-1-en-1-yl]methyl}piperazin-1-yl)-N-{[4-({(3R)-1-[2-fluoro-1-(fluoromethyl)ethyl]piperidin-3-yl}amino)-3-nitrophenyl]sulfonyl}benzamide] — 2.9-fold higher, 0.114 nM
- CC1(C)CCC(CN2CCN(c3ccc(C(=O)NS(=O)(=O)c4ccc(NCC5CCOCC5)c([N+](=O)[O-])c4)c(Oc4cc(NC(=O)OC(C)(C)C)ncc4Br)c3)CC2)=C(c2ccc(Cl)cc2)C1 [Example 383, tert-butyl 5-bromo-4-(5-(4-{[2-(4-chlorophenyl)-4,4-dimethylcyclohex-1-en-1-yl]methyl}piperazin-1-yl)-2-{[({3-nitro-4-[(tetrahydro-2H-pyran-4-ylmethyl)amino]phenyl}sulfonyl)amino]carbonyl}phenoxy)pyridin-2-ylcarbamate] — 11000-fold higher, 427 nM
- CC1(C)CCC(CN2CCN(c3ccc(C(=O)NS(=O)(=O)c4ccc(NCC5CCOCC5)c([N+](=O)[O-])c4)c(Oc4cnc5[nH]ccc5c4Cl)c3)CC2)=C(c2ccc(Cl)cc2)C1 [Example 384, 4-(4-{[2-(4-chlorophenyl)-4,4-dimethylcyclohex-1-en-1-yl]methyl}piperazin-1-yl)-2-[(4-chloro-1H-pyrrolo[2,3-b]pyridin-5-yl)oxy]-N-({3-nitro-4-[(tetrahydro-2H-pyran-4-ylmethyl)amino]phenyl}sulfonyl)benzamide] — 160-fold higher, 6.23 nM
- CC1(C)CCC(CN2CCN(c3ccc(C(=O)NS(=O)(=O)c4ccc(NCC5CCOCC5)c([N+](=O)[O-])c4)c(Oc4ccc(NCC(F)(F)F)nc4)c3)CC2)=C(c2ccc(Cl)cc2)C1 [Example 385, 4-(4-{[2-(4-chlorophenyl)-4,4-dimethylcyclohex-1-en-1-yl]methyl}piperazin-1-yl)-N-({3-nitro-4-[(tetrahydro-2H-pyran-4-ylmethyl)amino]phenyl}sulfonyl)-2-({6-[(2,2,2-trifluoroethyl)amino]pyridin-3-yl}oxy)benzamide] — 1300-fold higher, 49.3 nM
- CC1(C)CCC(CN2CCN(c3ccc(C(=O)NS(=O)(=O)c4ccc(NCC5CCC(O)CC5)c([N+](=O)[O-])c4)c(Oc4cnc(N)c(Cl)c4)c3)CC2)=C(c2ccc(Cl)cc2)C1 (stereo not drawn) [Example 386, 2-[(6-amino-5-chloropyridin-3-yl)oxy]-4-(4-{[2-(4-chlorophenyl)-4,4-dimethylcyclohex-1-en-1-yl]methyl}piperazin-1-yl)-N-[(4-{[(4-hydroxycyclohexyl)methyl]amino}-3-nitrophenyl)sulfonyl]benzamide] — lower, < 0.01 nM
- CC1(C)CC(c2ccc(Cl)cc2)=C(CN2CCN(c3ccc(C(=O)NS(=O)(=O)c4ccc(NCC5CCOCC5)c([N+](=O)[O-])c4)c(Oc4cnc(N)c(Cl)c4)c3)CC2)CO1 [Example 387, 2-[(6-amino-5-chloropyridin-3-yl)oxy]-4-(4-{[4-(4-chlorophenyl)-6,6-dimethyl-5,6-dihydro-2H-pyran-3-yl]methyl}piperazin-1-yl)-N-({3-nitro-4-[(tetrahydro-2H-pyran-4-ylmethyl)amino]phenyl}sulfonyl)benzamide] — lower, < 0.01 nM
- CC1(C)CC(c2ccc(Cl)cc2)=C(CN2CCN(c3ccc(C(=O)NS(=O)(=O)c4cnc(OCC5(F)CCOCC5)c(Cl)c4)c(Oc4cc5cc[nH]c5cc4F)c3)CC2)CO1 [Example 388, N-({5-chloro-6-[(4-fluorotetrahydro-2H-pyran-4-yl)methoxy]pyridin-3-yl}sulfonyl)-4-(4-{[4-(4-chlorophenyl)-6,6-dimethyl-5,6-dihydro-2H-pyran-3-yl]methyl}piperazin-1-yl)-2-[(6-fluoro-1H-indol-5-yl)oxy]benzamide] — 1.9-fold lower, 0.02 nM
- CC1(C)CCC(CN2CCN(c3ccc(C(=O)NS(=O)(=O)c4ccc(NCC5CCOC5)c([N+](=O)[O-])c4)c(Oc4cnc(N)c(Cl)c4)c3)CC2)=C(c2ccc(Cl)cc2)C1 (stereo not drawn) [Example 389, 2-[(6-amino-5-chloropyridin-3-yl)oxy]-4-(4-{[2-(4-chlorophenyl)-4,4-dimethylcyclohex-1-en-1-yl]methyl}piperazin-1-yl)-N-({3-nitro-4-[(tetrahydrofuran-3-ylmethyl)amino]phenyl}sulfonyl)benzamide] — lower, < 0.01 nM
- CC1(C)CC(c2ccc(Cl)cc2)=C(CN2CCN(c3ccc(C(=O)NS(=O)(=O)c4cnc(OCC5(F)CCOCC5)c(Cl)c4)c(Oc4cnc(N)c(Cl)c4)c3)CC2)CO1 [Example 390, 2-[(6-amino-5-chloropyridin-3-yl)oxy]-N-({5-chloro-6-[(4-fluorotetrahydro-2H-pyran-4-yl)methoxy]pyridin-3-yl}sulfonyl)-4-(4-{[4-(4-chlorophenyl)-6,6-dimethyl-5,6-dihydro-2H-pyran-3-yl]methyl}piperazin-1-yl)benzamide] — lower, < 0.01 nM
- Nc1ncc(Oc2cc(N3CCN(CC4=C(c5ccc(Cl)cc5)CCC5(CCN(C(CF)CF)CC5)C4)CC3)ccc2C(=O)NS(=O)(=O)c2ccc(NCC3CCOCC3)c([N+](=O)[O-])c2)cc1Cl [Example 391, 2-[(6-amino-5-chloropyridin-3-yl)oxy]-4-[4-({9-(4-chlorophenyl)-3-[2-fluoro-1-(fluoromethyl)ethyl]-3-azaspiro[5.5]undec-8-en-8-yl}methyl)piperazin-1-yl]-N-({3-nitro-4-[(tetrahydro-2H-pyran-4-ylmethyl)amino]phenyl}sulfonyl)benzamide] — lower, < 0.01 nM
- CC(C)N1CCC2(CCC(c3ccc(Cl)cc3)=C(CN3CCN(c4ccc(C(=O)NS(=O)(=O)c5ccc(NCC6CCOCC6)c([N+](=O)[O-])c5)c(Oc5cnc(N)c(Cl)c5)c4)CC3)C2)CC1 [Example 392, 2-[(6-amino-5-chloropyridin-3-yl)oxy]-4-(4-{[9-(4-chlorophenyl)-3-isopropyl-3-azaspiro[5.5]undec-8-en-8-yl]methyl}piperazin-1-yl)-N-({3-nitro-4-[(tetrahydro-2H-pyran-4-ylmethyl)amino]phenyl}sulfonyl)benzamide] — lower, < 0.01 nM
- CN(C)CC(=O)N1CCC(F)(COc2ncc(S(=O)(=O)NC(=O)c3ccc(N4CCN(CC5=C(c6ccc(Cl)cc6)CC(C)(C)CC5)CC4)cc3Oc3cnc(N)c(Cl)c3)cc2Cl)CC1 [Example 393, 2-[(6-amino-5-chloropyridin-3-yl)oxy]-N-[(5-chloro-6-{[1-(N,N-dimethylglycyl)-4-fluoropiperidin-4-yl]methoxy}pyridin-3-yl)sulfonyl]-4-(4-{[2-(4-chlorophenyl)-4,4-dimethylcyclohex-1-en-1-yl]methyl}piperazin-1-yl)benzamide] — lower, < 0.01 nM
- CC1(C)CCC(CN2CCN(c3ccc(C(=O)NS(=O)(=O)c4ccc(N[C@@H]5CCN(C(CF)CF)C5)c([N+](=O)[O-])c4)c(Oc4cnc(N)c(Cl)c4)c3)CC2)=C(c2ccc(Cl)cc2)C1 [Example 394, 2-[(6-amino-5-chloropyridin-3-yl)oxy]-4-(4-{[2-(4-chlorophenyl)-4,4-dimethylcyclohex-1-en-1-yl]methyl}piperazin-1-yl)-N-{[4-({(3R)-1-[2-fluoro-1-(fluoromethyl)ethyl]pyrrolidin-3-yl}amino)-3-nitrophenyl]sulfonyl}benzamide] — 2.2-fold lower, 0.018 nM
- CC1(C)CCC(CN2CCN(c3ccc(C(=O)NS(=O)(=O)c4ccc(NCC5CCOCC5)c([N+](=O)[O-])c4)c(Oc4cc(N)ncc4Br)c3)CC2)=C(c2ccc(Cl)cc2)C1 [Example 395, 2-[(2-amino-5-bromopyridin-4-yl)oxy]-4-(4-{[2-(4-chlorophenyl)-4,4-dimethylcyclohex-1-en-1-yl]methyl}piperazin-1-yl)-N-({3-nitro-4-[(tetrahydro-2H-pyran-4-ylmethyl)amino]phenyl}sulfonyl)benzamide] — 2-fold higher, 0.077 nM
- CC1(C)CCC(CN2CCN(c3ccc(C(=O)NS(=O)(=O)c4ccc(NCC5CCC(F)(F)CC5)c([N+](=O)[O-])c4)c(Oc4cnc(N)c(Cl)c4)c3)CC2)=C(c2ccc(Cl)cc2)C1 [Example 396, 2-[(6-amino-5-chloropyridin-3-yl)oxy]-4-(4-{[2-(4-chlorophenyl)-4,4-dimethylcyclohex-1-en-1-yl]methyl}piperazin-1-yl)-N-[(4-{[(4,4-difluorocyclohexyl)methyl]amino}-3-nitrophenyl)sulfonyl]benzamide] — lower, < 0.01 nM
- CC1(C)CCC(CN2CCN(c3ccc(C(=O)NS(=O)(=O)c4cnc(OC[C@@H]5CCN(C(CF)CF)C5)c(Cl)c4)c(Oc4cnc(N)c(Cl)c4)c3)CC2)=C(c2ccc(Cl)cc2)C1 [Example 399, 2-[(6-amino-5-chloropyridin-3-yl)oxy]-N-{[5-chloro-6-({(3R)-1-[2-fluoro-1-(fluoromethyl)ethyl]pyrrolidin-3-yl}methoxy)pyridin-3-yl]sulfonyl}-4-(4-{[2-(4-chlorophenyl)-4,4-dimethylcyclohex-1-en-1-yl]methyl}piperazin-1-yl)benzamide] — lower, < 0.01 nM
- CC1(C)CCC(CN2CCN(c3ccc(C(=O)NS(=O)(=O)c4cnc(OC[C@@H]5CCN(CC(F)F)C5)c(Cl)c4)c(Oc4cnc(N)c(Cl)c4)c3)CC2)=C(c2ccc(Cl)cc2)C1 [Example 400, 2-[(6-amino-5-chloropyridin-3-yl)oxy]-N-[(5-chloro-6-{[(3R)-1-(2,2-difluoroethyl)pyrrolidin-3-yl]methoxy}pyridin-3-yl)sulfonyl]-4-(4-{[2-(4-chlorophenyl)-4,4-dimethylcyclohex-1-en-1-yl]methyl}piperazin-1-yl)benzamide] — 2.1-fold higher, 0.082 nM
